Reference: patent US12011426B2, “Methods of metabolic regulation of mitochondria for treating neural injury and neurological disorders” (The USA, as represented by the Secretary, Dept. of Health …, priority 2018, dated 2024)

What was measured:
[1] = tested on: succinate dehydrogenase (SDH); test: SDH activity in the retina of ONC-injured active TLGSs; type: in vivo, thirteen lined ground squirrel (TLGS); conditions: intraocular injection
From the text: (§1) It is known in the art that a key event in the LPS-induced macrophage activation is the over-production of mitochondrial ROS driven by the hyperpolarization of mitochondrial membrane potential and SDH-accelerated succinate oxidation (Mills et al., 2016). However, for the retina, it is challenging to perform live ROS measurement, because enucleation causes an acute ROS surge due to severing of the optic nerve. Thus, a method was developed to visualize in situ mitochondrial ROS production in thirteen lined ground squirrel (TLGS) retina with optic nerve crush (ONC), that used a mitochondrial ROS dye—MitoNeoD (Shchepinova et al., 2017). […] In active TLGS retina with partial ONC injuries, it was observed that above the optic nerve fiber/RGC layers there were cells decorated with bright MitoNeoOH (oxidized and fluorescent form of MitoNeoD) signals (arrows in FIG. 6D) overlapping with a mitochondrial protein marker (TOM20) (FIGS. 7A, 7B, and 7C). These cells were then confirmed to be mostly microglial cells (FIGS. 7D, 7E, and 7F). It was then confirmed that intraocular injection of DMM indeed lowered SDH activity in the retina of ONC-injured active TLGSs (FIG. 8B).

[2] = tested on: microglia cell line (BV2); test: LPS-induced pro-inflammatory cytokine production in a microglia cell line; type: cell-based, mouse
From the text: The direct effect of DMM on microglia was examined by conducting an in vitro experiment using a microglia cell line (BV2).
as §1

[3] = tested on: retina ganglion cells (RGCs); test: Optic nerve crush (ONC), retina ganglion cell survival; type: in vivo, ground squirrel; conditions: awake animals; injected into the eye before and after the ONC surgery
From the text: Previous work has shown that succinate regulates macrophages, causing them to switch between pro-inflammatory and anti-inflammatory states (Mills, et al., (2016) Succinate Dehydrogenase Supports Metabolic Repurposing of Mitochondria to Drive Inflammatory Macrophages. Cell, […]; 457-470.e13). Thus, the inventors hypothesized that immune regulation due to reduced succinate levels may occur in the retina during hibernation, and that this may subsequently affect cellular response to neural injury. To test this hypothesis, optic nerve crush (ONC), a classic axonal injury experiment, was performed in awake and in hibernating ground squirrels. Retina ganglion cells (RGCs) appeared to survive ONC during hibernation (FIG. 4). Intriguingly, a key cellular response difference between awake and hibernating animals to ONC is microglial aggregation and activation, in line with the hypothesis that low succinate level during hibernation may prevent microglia from activation in response to injury. To further test this hypothesis, a second experiment was done in which dimethyl malonate (DMM), an inhibitor of SDH, was injected into the eye before and after the ONC surgery in awake animals to create a lower succinate condition, thereby mimicking hibernation. […] To further examine the role of microglia, microglia were pharmacologically eliminated before ONC surgery in awake animals. […]

mitochondrial ROS = test: In situ mitochondrial ROS production in retina after partial ONC (MitoNeoD dye); type: in vivo, thirteen lined ground squirrel (TLGS); conditions: active TLGSs with ONC; intraocular injection
From the text: as §1

[4] = cultured microglial cells, 100 ng/ml LPS + 1 mM or 10 mM DMM
[5] = mouse BV-2, concentration not given

Compound: COC(=O)CC(=O)OC [DMM, dimethyl malonate]
- SDH activity in the retina [1]: lowered
- response of microglia to LPS ([2]; BV2, DMM 1 or 10 mM): significantly attenuated
- production of IL1A [2, 4]: significantly reduced
- production of MCP-1 [2, 4]: significantly reduced
- LPS-induced production of IL-1α [2, 5]: effectively reduced
- LPS-induced production of IL-6 [2, 5]: effectively reduced
- LPS-induced production of MCP-1 [2, 5]: effectively reduced
- RGC survival after ONC [3]: significantly improved
- mitochondrial ROS production (mitochondrial ROS): significantly alleviated
